Values of other authors in patent publication US7718634B2, “Method of treatment using bisphosphonic acid” (Hoffman-La Roche Inc., priority 2002, dated 2010).

Columns and labels:
bone resorption = conditions: animal models of bone resorption

CCCCCN(C)CCC(O)(P(=O)(O)O)P(=O)(O)O [ibandronate, 1-hydroxy-3-(N-methyl-N-pentyl)aminopropylidene-1,1-bisphosphonic acid]
times more potent than alendronate (bone resorption; relative to alendronate): 10 times
times more potent than clodronate (bone resorption; relative to clodronate): 500 times
times more potent than pamidronate (bone resorption; relative to pamidronate): 50 times
times more potent than risedronate (bone resorption; relative to risedronate): 2 times
number of osteoclasts (osteoclasts; at high doses): reduces the number of osteoclasts
bone resorption and mineralization (osteoclasts; in vivo): inhibits bone resorption without any impairment of mineralization
osteoclastic activity (osteoclasts; in vivo): decrease osteoclastic activity
